How the values were obtained:
YBX1 mRNA = YBX1 mRNA level by quantitative RT-PCR in A549 cells; type: cell-based, human; details: 24 h post-transfection
Description: A549 cells were transfected with 10 nM RRM1-1 (SEQ ID NO: 4830 (DNA), and SEQ ID NO: 5136 (RNA); light grey bar in FIG. 12A), RRM1-2 (SEQ ID NO: 4831 (DNA), and SEQ ID NO: 5137 (RNA); dark grey bar in FIG. 12A), RRM1-3 (SEQ ID NO: 4832 (DNA), and SEQ ID NO: 5138 (RNA); black bar in FIG. 12A) or control siRNA (SEQ ID NO: 4804 (DNA), and SEQ ID NO: 5301 (RNA)) (open bar in FIG. 12A) and relative mRNA levels quantified 24 h post-transfection. RNA was purified from cells using Trizol® extraction as per the manufacturer's protocol (Invitrogen). cDNA was prepared by digesting approximately 200 ng purified RNA with DNAse I (Invitrogen) for 15 minutes at room temperature, followed by 15 minutes at 65° C. in the presence of 25 mM EDTA. 30 ng random primers were added and incubated for 10 minutes at room temperature, 1 minute on ice; Superscript III polymerase (Invitrogen) was added in presence of 5 nM DTT (Sigma, St Louis, Mo.) and 1 mM deoxyribonucleotides (Invitrogen), and the reaction incubated at 25° C. for 5 minutes, followed by an hour at 55° C. cDNA was diluted 1:3 in 10 mM Tris pH 7.0, and quantitative RT-PCR carried out on an ABI Prism 7900HT (Applied Biosciences, Inc., Foster City, Calif.) using FastStart TaqMan SYBRGreen (Roche, Basel, Switzerland) and specific primers at 360 nM for RRM1 and RRM2 and the housekeeping genes HPRT and Lamin. Primer sequence pairs used for RRM1, RRM2, HPRT and lamin are given in SEQ ID NO: 4881 and 4882; 4883 and 4884; 4885 and 4886; 4887 and 4888 respectively.
A549 cells were transfected with 0.1, 1.0 and 10 nM siRNA (given in SEQ ID NO: 4981 to 4985 (DNA), and SEQ ID NO: 5276-5280 (RNA)) and the relative mRNA levels quantified 24 h post-transfection as described in Example 8.

A549 xenograft tumor = assay: Xenograft tumor growth of A549 cells transfected with siRNA pre-implantation in CD-1 nude mice; type: in vivo, mouse
Description: To determine the effect of RRM1 knockdown on tumor growth, A549 cells (human lung cancer cell line; ATCC No. CCL-185) were reverse-transfected prior to implantation in CD-1 nude mice. In 175 cm^2 culture flasks, 10×10^6 A549 cells (in RPMI supplemented with 10% fetal calf serum) were added to pre-made lipoplexes. To make lipoplexes, Lipofectamine RNAiMAX in serum-free RPMI was added to an equal volume of serum-free RPMI containing siRNA (RRM1-2; SEQ ID NO: 4831 (DNA), and SEQ ID NO: 5137 (RNA)) and a control siRNA (SEQ ID NO: 4804 (DNA), and SEQ ID NO: 5301 (RNA)). After addition of cells, the final concentration of siRNA in the flask was 10 nM. Untransfected cells served as a further control. Flasks were incubated at 37° C. for 24 h to allow transfection to proceed.
The cells were harvested by trypsinization 24 h after the transfection, washed twice in PBS and viable cells were counted. Equal numbers of cells (1×10^7) were inoculated into CD-1 nude mice (n=7-9). Briefly, 5 to 7 weeks old nude mice were subcutaneously (s.c.) injected in the right flank with A549 cells in 100 μl PBS. Tumor growth was monitored 3 times per week by measuring tumor sizes using a digital caliper. Tumor volume was expressed in […] using the formula: V=a^2×b×0.52, where a and b represent the minimum and maximum tumor diameter, respectively. Mean tumor volumes calculated from each measurement were then plotted in a standard graph to compare the tumor growth of transfected cells to that of control.
To determine the effect of siRNA-mediated knockdown of HK-II, CAD, IMPDH2, RRM2, SLC16A1 and SLC29A1 on tumor growth, A549 cells (human lung cancer cell line; ATCC No. CCL-185) were reverse-transfected prior to implantation in CD-1 nude mice as described above with siRNAs given in SEQ ID NO: 5307 (DNA), and SEQ ID NO: 5304 (RNA) for RRM2, SEQ ID NO: 4932 (DNA), and SEQ ID NO: 5227 (RNA) for ENT1, SEQ ID NO: 4813 (DNA), and SEQ ID NO: 5119 (RNA) for HK-II, SEQ ID NO: 4827 (DNA), and SEQ ID NO: 5133 (RNA) for CAD, SEQ ID NO: 4879 (DNA), and SEQ ID NO: 5182 (RNA) for IMPDH2 and SEQ ID NO: 4924 (DNA), and SEQ ID NO: 5219 (RNA) for SLC16A1, respectively. The siRNA given in SEQ ID NO: 4804 (DNA), and SEQ ID NO: 5301 (RNA) was used as control.
In two separate experiments, CD-1 mice were divided into five groups that received untransfected A549 cells, cells transfected with control siRNA or three different siRNAs (as listed above), respectively. Cells were transfected in vitro using the method as described in Example 8, and 24 h after transfection, s.c. inoculated into mice. Tumor growth was measured 3 times per week. In the first experiment, mice received cells transfected with siRNA targeting RRM2, HK-II or SLC29A1 and were monitored for 33 days. In the second experiment, mice received cells transfected with siRNA targeting CAD, IMPDH2 or SLC16A1, and were monitored for 26 days. […] Similarly, preliminary data indicated tumor growth rate was reduced for the groups receiving cells transfected with siRNA targeting CAD and SLC16A1. Twenty-six days after cell inoculation, the tumor volume for mice with cells transfected with siRNA targeting CAD or SLC16A1 was 97.2±7.3 mm^3 or 110.1±28.1 mm^3, respectively.

Row | Substance | YBX1-specific reduction of mRNA levels in A549 cells (YBX1 mRNA; 1 nM siRNA) | YBX1-specific reduction of mRNA levels in A549 cells (YBX1 mRNA; 10 nM siRNA) | other results
1 | SEQ ID NO: 4985: siRNA targeting YBX1 (chain 1 CAGCCTAGAGAGGACGGCAATGAAG; chain 2 CAGCCUAGAGAGGACGGCAAUGAAG; chemistry not given here; one strand in two spellings) | ++ (At least 50% inhibition) | ++ (At least 50% inhibition) | YBX1-specific reduction of mRNA levels in A549 cells (YBX1 mRNA; 0.1 nM siRNA): + (At least 20% inhibition)
2 | SEQ ID NO: 5307: Stealth siRNA targeting RRM2 (chain 1 AATTCATCCCAATGAGCTTCACAGG; chain 2 AAUUCAUCCCAAUGAGCUUCACAGG; Stealth siRNA, chemical pattern not given here; one strand in two spellings) |  |  | average tumor size (A549 xenograft tumor; thirty-three days after the cell inoculation, preliminary data): 100.1±116.6 mm^3
3 | SEQ ID NO: 4984: siRNA targeting YBX1 (chain 1 CAAGGTAGACCAGTGAGGCAGAATA; chain 2 CAAGGUAGACCAGUGAGGCAGAAUA; chemistry not given here; one strand in two spellings) | +++ (At least 70% inhibition) | +++ (At least 70% inhibition) | YBX1-specific reduction of mRNA levels in A549 cells (YBX1 mRNA; 0.1 nM siRNA): +++ (At least 70% inhibition)
4 | SEQ ID NO: 4983: siRNA targeting YBX1 (chain 1 TACTGTGGTCGACGCCCATAGGGTC; chain 2 UACUGUGGUCGACGCCCAUAGGGUC; chemistry not given here; one strand in two spellings) |  | ++ (At least 50% inhibition) | 
5 | SEQ ID NO: 4982: siRNA targeting YBX1 (chain 1 TTTGCTGGTAATTGCGTGGAGGACC; chain 2 UUUGCUGGUAAUUGCGUGGAGGACC; chemistry not given here; one strand in two spellings) | +++ (At least 70% inhibition) | +++ (At least 70% inhibition) | 
6 | SEQ ID NO: 4924: siRNA targeting SLC16A1 (MCT1) (chain 1 TTAGACTTATCTTTCCCTGCCTTGG; chain 2 UUAGACUUAUCUUUCCCUGCCUUGG; chemistry not given here; one strand in two spellings) |  |  | tumor growth rate compared to control groups (A549 xenograft tumor; A549 cells transfected with siRNA before s.c. inoculation): reduced; tumor volume (A549 xenograft tumor; twenty-six days after cell inoculation, preliminary data): 110.1±28.1 mm^3
7 | SEQ ID NO: 4932: siRNA targeting SLC29A1 (ENT1) (chain 1 TGATAAAGTAGCCGAAGGCACTTTC; chain 2 UGAUAAAGUAGCCGAAGGCACUUUC; chemistry not given here; one strand in two spellings) |  |  | tumor growth inhibition compared to the control groups (A549 xenograft tumor; cells transfected pre-implantation, monitored 33 or 26 days): No tumor growth inhibition

Source: US20080145313A1, “Compositions and Methods for the Treatment and Prevention of Neoplastic Disorders” (Genesis Research & Development Corporation Limited, priority 2006, published 2008)
